GI50 and TGI data for nine compounds are collected here from PubChem BioAssay (NCI).

Some test systems named below: UACC-257 melanoma; SK-MEL-28 melanoma; M14 melanoma; NCI-H522 lung; A549 NSCLC; MALME-3M melanoma; HOP-92 NSCLC; PC-3 prostate; KM12 colon; UACC-62 melanoma.
Test in all cases: NCI-60 cell line screen, 48 h

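Each compound was tested at five concentrations against cells in 96-well plates for 48 hours. GI50 = concentration required for 50% inhibition of growth. At the TGI there is no net growth.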

On to `CN(C)CCOc1ccc2c(c1)C(=O)/C(=C\c1ncc([N+](=O)[O-])n1C)C2`, for which the GI50 with UACC-257 melanoma was 0.917 µM; in the assay on SK-MEL-28 melanoma, 0.922 µM; with M14 melanoma, 0.543 µM; in the assay on NCI-H522 lung, 0.191 µM; in the assay on A549 NSCLC, 0.37 µM; with MALME-3M melanoma, 0.371 µM. For the same compound, the GI50 in the assay on HOP-92 NSCLC was 0.701 µM; in the assay with PC-3 prostate it was 0.965 µM; in the assay with KM12 colon, 1.19 µM; in the assay on UACC-62 melanoma, 0.851 µM. Further, the TGI with UACC-257 melanoma is 3.19 µM; in the assay on SK-MEL-28 melanoma, 2.79 µM; in the assay on M14 melanoma, 1.83 µM; with NCI-H522 lung it was 0.492 µM; in the assay on A549 NSCLC it was 5.14 µM; with MALME-3M melanoma, 1.69 µM. The TGI in the assay with HOP-92 NSCLC is 3.25 µM; in the assay on PC-3 prostate, 4.82 µM; in the assay on KM12 colon, 3.21 µM; in the assay with UACC-62 melanoma, 2.49 µM.
As for `COC(=N)CCCl`, the TGI in the assay with UACC-257 melanoma, with SK-MEL-28 melanoma, with M14 melanoma, in the assay with NCI-H522 lung, in the assay on A549 NSCLC and in the assay on MALME-3M melanoma was over 100 µM throughout. For the same compound, the TGI in the assay with HOP-92 NSCLC, in the assay on PC-3 prostate, in the assay on KM12 colon and with UACC-62 melanoma was over 100 µM throughout.
As to `O=C1C=CC(=O)c2c(O)c(N(CCCl)CCCl)c(Cl)c(O)c21`, the TGI in the assay with UACC-257 melanoma is 5.23 µM; with SK-MEL-28 melanoma, over 6.98 µM; in the assay on M14 melanoma, 6.06 µM; in the assay on NCI-H522 lung, 6.01 µM; in the assay on A549 NSCLC, over 10 µM; in the assay with MALME-3M melanoma, 5.79 µM. Also, the TGI with HOP-92 NSCLC is 5.78 µM; in the assay on PC-3 prostate, over 8.55 µM; with KM12 colon, over 9.63 µM; with UACC-62 melanoma, over 7.71 µM.
As to `COc1ccc(C2C3=C(COC3=O)N(CCO)c3cc4c(cc32)CCC4)cc1` (centres undefined), the GI50 was 4.34 µM in the assay with UACC-257 melanoma; 5.31 µM in the assay on SK-MEL-28 melanoma; 2.32 µM with M14 melanoma; 0.808 µM with NCI-H522 lung; 3.84 µM with A549 NSCLC; 3.06 µM with MALME-3M melanoma. The GI50 in the assay on HOP-92 NSCLC is over 50 µM; in the assay on PC-3 prostate, 6.22 µM; in the assay on KM12 colon, 2.31 µM; in the assay with UACC-62 melanoma, 2.65 µM. Moreover, the TGI is over 50 µM with UACC-257 melanoma; over 50 µM in the assay on SK-MEL-28 melanoma; 21.1 µM with M14 melanoma; 3.73 µM in the assay on NCI-H522 lung; over 50 µM in the assay on A549 NSCLC; over 50 µM in the assay on MALME-3M melanoma. In addition, the TGI in the assay on HOP-92 NSCLC, with PC-3 prostate, in the assay on KM12 colon and in the assay with UACC-62 melanoma was over 50 µM throughout.
Consider `Cc1c2ccccc2c(C)n2c1nc1cc(Cl)c(Cl)cc12`, for which the GI50 in the assay on UACC-257 melanoma was over 100 µM; in the assay on SK-MEL-28 melanoma it was over 100 µM; in the assay with M14 melanoma it was over 100 µM; in the assay on NCI-H522 lung it was 15.1 µM; in the assay with A549 NSCLC, over 100 µM; with MALME-3M melanoma, over 100 µM. Besides, the GI50 was over 100 µM in the assay on HOP-92 NSCLC, 31.4 µM with PC-3 prostate, over 100 µM in the assay on KM12 colon and 45.2 µM in the assay with UACC-62 melanoma. Moreover, the TGI in the assay on UACC-257 melanoma was over 100 µM; with SK-MEL-28 melanoma it was over 100 µM; in the assay on M14 melanoma, over 100 µM; in the assay on NCI-H522 lung, 80.3 µM; in the assay with A549 NSCLC, over 100 µM; in the assay on HOP-92 NSCLC, over 100 µM. In addition, the TGI with PC-3 prostate, in the assay on KM12 colon and with UACC-62 melanoma was over 100 µM throughout.
On to `CSc1nc2ccc(C)cc2cc1/C=C1/C=C(c2ccccc2)NC1=O`, for which the GI50 in the assay on UACC-257 melanoma is 94.6 µM; in the assay on SK-MEL-28 melanoma, 23.1 µM; in the assay on M14 melanoma it was 5.42 µM; in the assay on NCI-H522 lung it was 3.53 µM; with A549 NSCLC it was 3.54 µM; in the assay with MALME-3M melanoma, 3.08 µM. For the same compound, the GI50 in the assay with HOP-92 NSCLC was 2.85 µM; in the assay with PC-3 prostate it was 5.32 µM; in the assay on KM12 colon it was 3.13 µM; in the assay on UACC-62 melanoma it was 10.8 µM. Moreover, the TGI in the assay with UACC-257 melanoma was over 100 µM; in the assay on SK-MEL-28 melanoma it was over 100 µM; with M14 melanoma, 78 µM; in the assay on NCI-H522 lung, 42.5 µM; in the assay with A549 NSCLC, 30.7 µM; in the assay with MALME-3M melanoma, 25.9 µM. Also, the TGI in the assay with HOP-92 NSCLC was 13.4 µM; in the assay with PC-3 prostate, over 100 µM; with KM12 colon it was 82.9 µM; in the assay with UACC-62 melanoma, 48.2 µM.
On to `NC1=C(O)C(=O)C(c2c[nH]c3ccc(OCc4ccccc4)cc23)O1` (centres undefined), for which the TGI with UACC-257 melanoma, with SK-MEL-28 melanoma, in the assay with M14 melanoma, with NCI-H522 lung, in the assay with A549 NSCLC and in the assay on MALME-3M melanoma was over 100 µM in each case. Moreover, the TGI in the assay on HOP-92 NSCLC, in the assay on PC-3 prostate, in the assay with KM12 colon and in the assay with UACC-62 melanoma was over 100 µM throughout.
As to `COC(=O)c1cc(C)[nH]c2c(C)cc3nc4ccccc4c3c12`, the GI50 in the assay on UACC-257 melanoma was 16.1 µM; with SK-MEL-28 melanoma, 14.6 µM; with M14 melanoma it was 11 µM; in the assay on NCI-H522 lung it was 3.23 µM; in the assay on A549 NSCLC, 10.2 µM; in the assay with MALME-3M melanoma it was 14.7 µM. In addition, the GI50 in the assay with HOP-92 NSCLC was 5.85 µM; with PC-3 prostate, 4.86 µM; with KM12 colon it was 4.94 µM; in the assay on UACC-62 melanoma, 5.99 µM. In addition, the TGI in the assay with UACC-257 melanoma amounted to 30 µM; with SK-MEL-28 melanoma, 28.3 µM; in the assay on M14 melanoma, 23.7 µM; in the assay with NCI-H522 lung, 14.5 µM; with A549 NSCLC it was 22.8 µM; in the assay with MALME-3M melanoma, 28.5 µM. For the same compound, the TGI with HOP-92 NSCLC was 20.7 µM; with PC-3 prostate, 18.8 µM; in the assay on KM12 colon, 18.1 µM; in the assay with UACC-62 melanoma, 21.1 µM.
As for `O=C1CC2OCC=C3CN4CCC5(C(=O)O)C(N1)C2C3CC45` (centres undefined), the TGI in the assay with UACC-257 melanoma, with SK-MEL-28 melanoma, with M14 melanoma, in the assay on NCI-H522 lung, in the assay on A549 NSCLC and in the assay on MALME-3M melanoma was over 100 µM each time. In addition, the TGI with HOP-92 NSCLC, in the assay with PC-3 prostate, in the assay with KM12 colon and with UACC-62 melanoma was over 100 µM each time.
